By Ki is commonly meant a dissociation constant, usually derived from enzyme kinetics or from competition with a known ligand. Lower therefore signals a stronger hold on the target.

The results in this text go back to publication PMC11178805, “Ligand-based design of [^18F]OXD-2314 for PET imaging in non-Alzheimer’s disease tauopathies” (Nature Communications, 2024).

Some results are limits rather than exact numbers.

T1 sequence (P10636 1-441 isoform P10636-8): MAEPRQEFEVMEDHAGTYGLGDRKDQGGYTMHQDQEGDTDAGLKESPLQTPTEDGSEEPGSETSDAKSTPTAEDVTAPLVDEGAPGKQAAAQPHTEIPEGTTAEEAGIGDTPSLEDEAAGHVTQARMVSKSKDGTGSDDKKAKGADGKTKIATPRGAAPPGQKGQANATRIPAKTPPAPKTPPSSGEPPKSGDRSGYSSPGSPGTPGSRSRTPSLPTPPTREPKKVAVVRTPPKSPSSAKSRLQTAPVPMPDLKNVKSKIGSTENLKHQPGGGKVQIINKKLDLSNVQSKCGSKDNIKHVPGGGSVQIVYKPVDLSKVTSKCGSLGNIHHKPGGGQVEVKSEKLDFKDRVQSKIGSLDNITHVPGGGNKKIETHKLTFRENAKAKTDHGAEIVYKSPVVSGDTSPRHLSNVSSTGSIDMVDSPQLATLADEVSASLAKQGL
T4 sequence (P10636 1-410 isoform P10636-5): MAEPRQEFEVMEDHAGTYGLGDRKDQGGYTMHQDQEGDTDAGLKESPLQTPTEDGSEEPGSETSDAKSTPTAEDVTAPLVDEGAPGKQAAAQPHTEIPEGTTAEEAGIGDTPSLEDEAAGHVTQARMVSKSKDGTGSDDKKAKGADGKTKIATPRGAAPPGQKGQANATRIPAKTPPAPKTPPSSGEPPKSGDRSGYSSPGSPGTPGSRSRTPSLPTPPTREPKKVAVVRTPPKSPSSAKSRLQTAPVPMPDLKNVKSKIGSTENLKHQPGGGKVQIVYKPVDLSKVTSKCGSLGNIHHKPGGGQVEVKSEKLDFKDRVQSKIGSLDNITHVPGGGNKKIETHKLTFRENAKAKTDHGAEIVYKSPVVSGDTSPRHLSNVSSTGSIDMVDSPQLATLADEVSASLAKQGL

One series concerns the target T1, 4R-tau aggregates in CBD tissue (Homo sapiens, UniProt P10636).
T1 construct: tissue Neurodegenerative Disease Brain Bank at UCSF; host or cells: human CBD brain, middle frontal gyrus (pool of three) or putamen (one subject)
The series is described as follows: Competition binding vs [^3H]OXD-2314 in CBD tissue.
Conditions: not given
Here is the method:
(§1) Fresh frozen, autopsy-confirmed human PD anterior cingulate cortex brain tissue blocks (1 cm^3) were obtained from Dr. Thomas Beach at Banner/Sun Health AZ with funding from the Michael J. Fox Foundation and contained frequent α-synuclein aggregates and no other detectable aggregated amyloid species. The frozen tissue blocks were prepared for the binding assays as previously described[47],[48], except that equal quantities of the homogenates of three AD brains (AD1-AD3, Table S1) were pooled, as were homogenates from three PSP brains (PSP1-PSP3), three CBD brains (CBD1-CBD3), three Pick’s brains (PiD1-PiD3), and 4 PD brains (PD1-PD4) in order to help minimize the inter-subject variability within the different neuropathological groups. Individual subcortical brain tissues from a PSP subject (PSP4) and a CBD subject (CBD4), as well as with the middle frontal cortex of a control subject, were prepared for the binding assays as previously described[47],[48].
(§2) The equilibrium inhibition constant (Ki) values of the unlabeled compounds were determined versus tritium-labeled radioligands using published methods.
Compound `Nc1c(F)ccc2cnc(-n3ccc4ccncc43)cc12` [MK-6240] had a Ki of 1.7 µM.

`OCC1CCN(c2ccc(-c3cc4cc(O)ccc4[nH]3)c(F)n2)CC1` [OXD-2115]: the affinity corresponds to a Ki of 0.03 µM.

`Fc1ccc(-c2ccc3c(c2)[nH]c2ccncc23)cn1` [Tauvid] came in with a Ki of more than 10 µM.

The same series, now with this note: vs [^3H]OXD-2314, CBD tissue.
On to `C#CCN(C)C(C)Cc1ccccc1` (stereo not drawn) [Deprenyl], for which the Ki worked out at 5 µM.

Compound `NCCNC(=O)c1ncsc1-c1cccc(F)c1` [Ro41-1049] displayed a Ki of more than 10 µM.

The target in another series is T2, 4R-tau aggregates in PSP tissue (Homo sapiens, UniProt P10636).
T2 construct: tissue Neurodegenerative Disease Brain Bank at UCSF
T2 sequence (P10636 1-441 isoform P10636-8): as the sequence (P10636 1-441 isoform P10636-8) above
The series is described as follows: Competition binding vs [^3H]OXD-2314 in PSP tissue.
Conditions: not given
On the procedure:
as §1, §2
With `Nc1c(F)ccc2cnc(-n3ccc4ccncc43)cc12` [MK-6240], the affinity corresponds to a Ki of 5.6 µM. That is a single-digit micromolar value.

In turn, `OCC1CCN(c2ccc(-c3cc4cc(O)ccc4[nH]3)c(F)n2)CC1` [OXD-2115] came in with a Ki of 0.027 µM.

In turn, `Fc1ccc(-c2ccc3c(c2)[nH]c2ccncc23)cn1` [Tauvid] displayed a Ki of more than 10 µM.

Still in this series, the particulars now being: vs [^3H]OXD-2314, PSP tissue.
In turn, `C#CCN(C)C(C)Cc1ccccc1` (stereo not drawn) [Deprenyl] displayed a Ki of 3 µM.

`NCCNC(=O)c1ncsc1-c1cccc(F)c1` [Ro41-1049] returned a Ki of more than 10 µM.

The target of a further series is T3, 3R/4R-tau aggregates in AD tissue (Homo sapiens, UniProt P10636). The series is described as follows: Competition binding vs [^3H]OXD-2314 in AD tissue.
Conditions: not given
Here is the method:
as §1, §2
Target sequence in this assay (P10636 623-758 limits assumed): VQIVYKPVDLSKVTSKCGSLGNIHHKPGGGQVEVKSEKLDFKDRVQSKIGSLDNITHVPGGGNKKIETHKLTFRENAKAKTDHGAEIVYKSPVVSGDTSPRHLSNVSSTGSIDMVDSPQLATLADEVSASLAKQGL
`Nc1c(F)ccc2cnc(-n3ccc4ccncc43)cc12` [MK-6240] gave a Ki of 1.9 µM.

For `OCC1CCN(c2ccc(-c3cc4cc(O)ccc4[nH]3)c(F)n2)CC1` [OXD-2115], affinity was put at a Ki of 0.014 µM.

Regarding `Fc1ccc(-c2ccc3c(c2)[nH]c2ccncc23)cn1` [Tauvid], the Ki is more than 10 µM.

The same series, now with this note: vs [^3H]OXD-2314, AD tissue.
Consider `C#CCN(C)C(C)Cc1ccccc1` (stereo not drawn) [Deprenyl], for which the Ki was determined as 2.9 µM. In other words, the single-digit micromolar range.

`NCCNC(=O)c1ncsc1-c1cccc(F)c1` [Ro41-1049]: the Ki is more than 10 µM.

Tested on in a further series: not listed separately
The series is described as follows: Baseline PET-CT imaging of [18F]OXD-2188 and [18F]OXD-2189 in rats. The class given is in vivo, rat. The conditions noted are these: normal rats, n = 2. Here is the method:
In vitro characterization, radiosynthesis and rat PET imaging of [ 18F ]O X D -2188 and […]
In vitro characterization. Ki values for OXD-21188 and OXD-2189 vs. [3H]OXD- 2115 in PSP tissue was 29.8 nM and 13.7nM respectively.
Radiochemistry. [18F]OXD- 2188 and [18F]OXD- 2189 were radiolabeled using the same […]
radiochemical purity above 95%, molar activity of 60.1 and 58.4 GBq/μmol, respectively, and radiochemical yield of 9% (not decay- co rrected).
PET imaging. Three adul t rats (two females and o ne male) w ere used in b aseline PET imaging of [18F]OXD- 2188 and [18F]OXD- 2189 (16- 23 MBq injected, with the m ale rat being scanned twice on two consecutive d ays). […]
for both [18F]OXD- 2188 (n=2) and [18F]OXD- 2189 (n=2) with rapid clearance of radioactivity from the brain (Figure S1).
Figure S1. Structures of OXD-2188 and OXD-2189, time-activity curves and representative PET summation images […]
With `Oc1ccc2[nH]c(-c3ccc(N4CCC[C@@H](O)C4)nc3[18F])cc2c1` [[18F]OXD-2188], the initial brain uptake is reported as ~ 1.0 SUV.

Take `Oc1ccc2[nH]c(-c3ccc(N4CCC[C@H](O)C4)nc3[18F])cc2c1` [[18F]OXD-2189]: the initial brain uptake was ~ 1.0 SUV.

Another series addresses T2, 4R-tau aggregates in PSP tissue. Put plainly: Competition binding vs [^3H]OXD-2115 in PSP tissue homogenates. Particulars: vs [^3H]OXD-2115, PSP tissue homogenates, n = 1. Here is the method:
as §1, §2
Turning to `OCC1CCN(c2ccc(-c3cc4cc(O)ccc4[nH]3)c(F)n2)CC1` [OXD-2115], the affinity, expressed as Ki, was 0.027 µM.

Consider `Oc1ccc2[nH]c(-c3ccc(N4CCC[C@@H](O)C4)nc3F)cc2c1` [OXD-2188], for which the Ki is 0.0298 µM.

In turn, `Oc1ccc2[nH]c(-c3ccc(N4CCC[C@H](O)C4)nc3F)cc2c1` [OXD-2189] came in with a Ki of 0.0137 µM.

For `Oc1ccc2[nH]c(-c3ccc(N4CCC(O)CC4)nc3F)cc2c1` [OXD-2310], the Ki came out at 0.0066 µM.

Regarding `Oc1ccc2[nH]c(-c3ccc(N4CCCC(F)C4)nc3F)cc2c1` (stereo not drawn) [OXD-2312], the Ki was found to be 0.0051 µM.

`Oc1ccc2[nH]c(-c3ccc(F)nc3N3CCCC(F)C3)cc2c1` (stereo not drawn) [OXD-2313]: the Ki was determined as 0.0048 µM.

With `Oc1ccc2[nH]c(-c3ccc(N4CCC(F)CC4)nc3F)cc2c1` [OXD-2317], the affinity, expressed as Ki, was 0.0058 µM.

`CO[C@H]1CCCN(c2ncc(-c3cc4cc(O)ccc4[nH]3)c(F)n2)C1` [OXD-2331] yielded a Ki of 0.0063 µM.

The next series addresses T4, 3R-tau aggregates in PiD tissue (Homo sapiens, UniProt P10636).
T4 construct: tissue Neurodegenerative Disease Brain Bank at UCSF; host or cells: human PiD brain, middle frontal gyrus, pooled homogenate of three brains
The series is described as follows: Competition binding vs [^3H]OXD-2314 in PiD tissue.
Conditions: not given
Here is the method: as §1, §2
`Nc1c(F)ccc2cnc(-n3ccc4ccncc43)cc12` [MK-6240] displayed a Ki of 1 µM.

The compound `OCC1CCN(c2ccc(-c3cc4cc(O)ccc4[nH]3)c(F)n2)CC1` [OXD-2115] yielded a Ki of 0.023 µM.

`Fc1ccc(-c2ccc3c(c2)[nH]c2ccncc23)cn1` [Tauvid] showed a Ki of 4.4 µM.

Tested on in another series: not listed separately
The series is described as follows: Mouse pharmacology (DMPK): plasma and brain concentrations, brain-to-plasma ratios after i.v. administration. The class given is in vivo, mice. The conditions noted are these: mouse, brain, iv, mice, i.v., AUC brain:plasma, FREE; read-out: free concentration ratio brain-to-plasma. On the procedure: Ex vivo evaluation of the BBB permeability of OXD-2314 was performed by measuring the brain-to-plasma ratios in mice. Compound concentrations in plasma (0.03 h, 0.17 h, 0.5 h, 1 h, and 2 h; n = 3 per timepoint) were compared with concentrations in brain (0.03 h, 0.17 h, 1 h, and 2 h; n = 3 per timepoint) for both OXD-2115 and OXD-2314. The total brain-to-plasma concentration ratios were 1.7 for OXD-2314 and 0.1 for OXD-2115. The free concentration ratio for brain-to-plasma was 0.6 for OXD-2314 and 0.002 for OXD-2115 (Figs. S3–S8 and Tables S2, S3).
Take `OCC1CCN(c2ccc(-c3cc4cc(O)ccc4[nH]3)c(F)n2)CC1` [OXD-2115]: the Kp,uu (unbound brain-to-plasma ratio) is 0.002.

Staying with this series, now noted: mouse, brain, iv, mice, i.v., AUC brain:plasma, TOTAL; read-out: total brain-to-plasma concentration ratio.
`OCC1CCN(c2ccc(-c3cc4cc(O)ccc4[nH]3)c(F)n2)CC1` [OXD-2115]: the Kp was determined as 0.1.

The target in another series is T3, 3R/4R-tau aggregates in AD tissue. The series is described as follows: Competition binding vs [^3H]OXD-2115 in AD tissue homogenates. Particulars: vs [^3H]OXD-2115, AD tissue homogenates, n = 1. Here is the method:
as §1, §2
Target sequence in this assay (P10636 623-695 limits assumed): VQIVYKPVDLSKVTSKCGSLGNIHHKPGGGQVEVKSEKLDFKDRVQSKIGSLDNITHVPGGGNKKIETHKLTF
`OCC1CCN(c2ccc(-c3cc4cc(O)ccc4[nH]3)c(F)n2)CC1` [OXD-2115] displayed a Ki of 0.02 µM.

`Oc1ccc2[nH]c(-c3ccc(N4CCC(O)CC4)nc3F)cc2c1` [OXD-2310] yielded a Ki of 0.021 µM.

For `Oc1ccc2[nH]c(-c3ccc(N4CCCC(F)C4)nc3F)cc2c1` (stereo not drawn) [OXD-2312], affinity was put at a Ki of 0.012 µM.

`Oc1ccc2[nH]c(-c3ccc(F)nc3N3CCCC(F)C3)cc2c1` (stereo not drawn) [OXD-2313] had a Ki of 0.011 µM.

The compound `Oc1ccc2[nH]c(-c3ccc(N4CCC(F)CC4)nc3F)cc2c1` [OXD-2317] gave an inhibitory constant (Ki) of 0.0054 µM.

On to `CO[C@H]1CCCN(c2ncc(-c3cc4cc(O)ccc4[nH]3)c(F)n2)C1` [OXD-2331], for which the Ki was 0.0074 µM.
